Results on 13 molecules are retold here after PubChem BioAssay (NCI).

What all share (test): NCI-60 cell line screen, 48 h
The test system of assay [1] is CCRF-CEM leukemia.
In assay [2] the test system is HT29 colon.
For assay [3], the system named is MALME-3M melanoma.
Assay [4] relates to MOLT-4 leukemia.
Assay [5] has as its system NCI-H226 lung.
Assay [6] relates to SN12C renal.
In assay [7] the test system is SNB-19 CNS.
Assay [8] concerns T-47D breast.
Assay [9] concerns UACC-62 melanoma.
Assay [10] has as its system UO-31 renal.

Each structure is given as a SMILES string.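 Method: 48-hour compound exposure of cells in 96-well plates, five concentrations, linear interpolation of endpoints. GI50: concentration for 50% inhibition of growth. The concentration for full growth arrest is given as TGI.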

For the molecule `CC(=O)Oc1ccc(-c2c(OC(C)=O)c(OC(C)=O)c(-c3ccc(OC(C)=O)c(OC(C)=O)c3)c(OC(C)=O)c2OC(C)=O)cc1`, the TGI in assay [1] was 37.4 µM; in assay [2], 36.1 µM; in assay [3] it was 30.3 µM; in [4] it was 44.3 µM; in assay [5], 35.5 µM; in assay [6] it was 35.1 µM. Besides, the TGI was 32.6 µM in [7], 29.2 µM in [8], 33.7 µM in assay [9] and 28.8 µM in [10].

As to `CC(=O)N/N=C1\NN(C(C)=O)C2(S1)C(=O)Nc1ccccc12` (stereo not drawn), the TGI in [1], in assay [2], in [3], in assay [4], in [5] and in assay [6] was > 100 µM each time. Also, the TGI in assay [7], in assay [8], in assay [9] and in assay [10] was > 100 µM in each case.

For the molecule `CCCCCCCCCC[C@@H](O)[C@H]1CC[C@@H]([C@H]2CC[C@H]([C@H](O)CCCCCCCCCC[C@@H]3CC(CC(C)=O)C(=O)O3)O2)O1` (stereo partly drawn), the TGI is > 100 µM in [1]; 37.5 µM in assay [3]; 40.6 µM in assay [4]; > 100 µM in assay [7]; 69.4 µM in [8]; 34.6 µM in assay [10]. Further, the GI50 in assay [4] is 6.72 µM; in assay [5], 19.6 µM; in assay [6] it was 26.7 µM; in assay [7], 18.3 µM; in assay [8], 2990 nM; in [10], 15.2 µM.

Regarding `C=CC(=O)N1C/C(=C\c2ccc(F)cc2)C(=O)/C(=C/c2ccc(F)cc2)C1`, the TGI was > 100 µM in assay [1]; 0.285 µM in assay [2]; 2.41 µM in assay [3]; 8.78 µM in [5]; 0.936 µM in assay [6]; 3.72 µM in assay [7]. Also, the TGI in [8] is 39.7 µM; in assay [9], 0.223 µM; in assay [10] it was 2.17 µM.

As for `O=C1C(=O)C(CCCO)(CCCO)CCCCCCCCC1(CCCO)CCCO`, the TGI in [2], in [3], in assay [5], in assay [6], in [7] and in assay [8] was > 100 µM throughout. The TGI in assay [9] was > 100 µM; in [10] it was 60.4 µM.

In the case of `C1CN(C23OC4(N5CCOCC5)C5C6CC(C7C6C4C72)C53)CCO1` (stereo not drawn), the TGI in assay [1], in assay [2], in assay [3], in [4], in assay [5] and in assay [6] was > 100 µM each time. For the same molecule, the TGI in [7], in assay [8], in [9] and in [10] was > 100 µM throughout.

On to `CCSc1nn(-c2c3ccccc3nc3ccccc23)c(=S)s1`, for which the TGI in assay [1], in [2], in assay [4], in assay [5], in assay [6] and in assay [7] was > 100 µM throughout. Also, the TGI in [8], in assay [9] and in assay [10] was > 100 µM each time.

On to `CN(CCc1ccccn1)C(=S)N/N=C/c1ccccn1`, for which the TGI in assay [1] was < 0.01 µM; in assay [2] it was 43.1 µM; in assay [3], 8.81 µM; in [4], < 0.025 µM; in assay [5], 0.255 µM; in assay [6] it was > 36.2 µM. Also, the TGI is > 100 µM in [7], 22.2 µM in assay [8], 15.7 µM in assay [9] and 17.8 µM in assay [10].

In the case of `CC(CN(C)C)C(O)(c1ccccc1)c1ccccc1` (stereo not drawn), the TGI in [1], in assay [2], in assay [3], in assay [4], in assay [5] and in [6] was > 100 µM each time. For the same molecule, the TGI in [7], in assay [8], in assay [9] and in [10] was > 100 µM in each case.

Take `CCOC(=O)c1c(C)n(CCN2CCN(C)CC2)c2ccc(OC)cc12`: the TGI is 71.4 µM in [1]; 71.2 µM in assay [2]; 74.6 µM in [3]; 68 µM in [4]; 72 µM in assay [5]; > 100 µM in assay [6]. Moreover, the TGI is > 100 µM in [7], > 100 µM in assay [8], 30.7 µM in [9] and > 100 µM in [10].

As to `CCCNC(=O)Cn1c(-c2ccccc2)cc2ccccc21`, the TGI in [1], in assay [2], in assay [3], in assay [4], in assay [5] and in assay [6] was > 100 µM in each case. Besides, the TGI in assay [7], in [8], in assay [9] and in assay [10] was > 100 µM in each case.

`NC(=O)CN1CCN(c2nc(N3CCCC3)c3nc(Cl)c(NCc4ccccc4)nc3n2)CC1`: the TGI in assay [1] was > 50 µM; in assay [2] it was 18 µM; in assay [3], 16.3 µM; in assay [4], 20.3 µM; in assay [5], 39.9 µM; in assay [6] it was 16.9 µM. In addition, the TGI was 18.9 µM in assay [7], 20.7 µM in [8], 17.2 µM in assay [9] and 21.9 µM in assay [10].

Consider `C[C@@H](CC(O)C(O)C(C)(C)O)C1CCC23CC12CCC1[C@@]2(C)CCC(=O)C(C)(C)C2CC(OC2OC(CO)C(O)C(O)C2O)[C@]13C` (stereo partly drawn), for which the TGI in assay [1], in assay [2], in assay [3], in assay [4], in assay [5] and in [6] was > 10 µM in each case. Also, the TGI in assay [7], in assay [8], in assay [9] and in assay [10] was > 10 µM each time.
